In US20070275935A1, “Estratriene Derivatives” (priority 2003, published 2007):

How the values were obtained:
HASM cells [1] = assay: Shape of HASM cells in the presence of thrombin; format: cell-based, human; details: thrombin 0.3 U/mL, 48 h
Method: The effects of 2MEO and 4NOM on the shape of HASM in the presence thrombin (0.3 U/mL) was investigated. Analogues were pre-incubated with HASM for 30 min before the addition of thrombin. The incubation continued for 48 h before capturing images of the HASM.

[2] = test system: human breast tumour cell line, MCF7; assay: Proliferation of MCF7 cells in response to 5% FCS or EGF; format: cell-based; details: for effect on proliferation of MCF7 cells, in words (FIG. 3): 5% FCS or EGF 300 pM
Method: (§1) The effects of 4NO were evaluated in a number of non-smooth muscle cell types including the type II airway epithelial cell line, A549 (ATCC accession number ATCC CCL-185 Lung carcinoma human) (FIG. 2); the human breast tumour cell line, MCF7, (ATTC accession number ATCC HTB-22 breast adenocarcinoma, human) which expresses the estrogen receptor (FIG. 3); and in bovine aortic endothelial cells (BAEC) (FIG. 4).
(§2) The effects of test compounds were examined on proliferation of A549 cells in response to 5% fetal calf serum (FCS). Analogues were pre-incubated with A549 cells for 30 min before the addition of FCS. The incubation continued for 48 h before cell enumeration. Data are expressed as a percentage of the cell number in vehicle treated wells and are presented as the mean and standard error of the mean. Similarly the effects of 2MEO and 4NO on proliferation of MCF7 in response to 5% FCS or epidermal growth factor (EGF, 300 pM) were examined, as were the effects of 2MEO and 4NO on proliferation of BAEC in response to 5% FCS. The incubation parameters were the same as described above and results are presented as the mean and standard error of the mean.
This assay was also used to evaluate the ability of other compounds to inhibit the proliferation of non-smooth muscle cells MCF7 and A549 (described above) in response to 5% FCS. The results of this assay are presented in Table 4 (columns G and H respectively). The potency of the compounds was considerably less in inhibiting proliferation of these cell lines than it was for HASM. These observations support the contention that there are cell type-specific targets for the actions of these compounds. Such assays may also be adopted to examine the effect of other disclosed compounds on these cells or on other non-smooth muscle cells of interest.

[3] = test system: mice (C57BL/6) sensitised to ovalbumin; assay: Airway hyperresponsiveness to methacholine in ovalbumin-sensitised mice; format: in vivo; details: ovalbumin-challenged mice; for airway reactivity to intravenous methacholine (change in respiratory resistance) (FIG. 8): 50 mg/kg/day intraperitoneally; for airway reactivity to intravenous methacholine (change in respiratory resistance) (FIG. 9): 50 mg/kg/day orally
Method: Conscious female mice (C57BL/6) of 6-8 weeks of age were sensitised by a 0.2 ml intraperitoneal injection of 50 ug ovalbumin (in 10 mg/ml aluminium hydroxide) on day 0 and 12. and subsequently challenged with an aerosol of OVA (1% w/v)/FCS (5% v/v) on days 20-28 for 30 minutes. The aerosol exposures were achieved by placing the rodents in a whole body plethysmograph apparatus and then nebulising the […] into the chamber through a port located on the top of the chamber. The aerosol exited the chamber via a bias flow into a particle trap.
Drug treatments were administered to assess the effects of drugs on the development of airway hyperresponsiveness. Drug treatment commenced the day prior (day 19) to the first exposure to OVA (day 20) and continued throughout the period during which the mice were challenged with OVA. Drug treatment comprised 4NO or 2MEO, each at 50 mg/kg administered once daily 2h before OVA exposure to either intraperitoneally or orally in a vehicle of 10% DMSO/90% peanut oil in a volume of 100 μL.
After the 26-28 day sensitisation and challenge protocol, airway obstruction in response to the bronchoconstrictor methacholine was measured. The mice were anaesthetised with a mixture of ketamine/xylazine. A tracheostomy was performed, and a catheter placed in the jugular vein to administer methacholine intravenously. The mouse was then be placed in a whole body plethysmograph and mechanically ventilated (150 breaths/min at a tidal volume of 10 ml/kg). The transpulmonary pressure was measured with a differential pressure transducer with one port attached to the interior of the plethysmograph and the other to the intratracheal cannula. The airflow rate was measured with a pneumotachograph.
The change in airways resistance in response to intravenous methacholine (1-1000 μg/kg, given 4 minutes apart) was calculated on-line with a Buxco pulmonary mechanics analyzer.
The effects of treatment of ovalbumin-challenged mice (veh-OVA) with either 2MEO or 4NO, provided intraperitoneally at 50 mg/kg/day on airway reactivity to intravenously administered methacholine are shown in FIG. 8. Data are expressed as the change in respiratory resistance from the baseline level and are presented as the mean and standard error of the mean.
OVA challenge (veh-OVA) increased the airway reactivity to methacholine compared to that detected in non-challenged mice (veh-SAL).

[4] = test system: bovine aortic endothelial cells (BAEC); assay: Proliferation of bovine aortic endothelial cells in response to 5% FCS; format: cell-based
Method: as §1, §2

HASM cells [5] = assay: PDGF(BB)-induced migration of HASM cells (modified Boyden chamber); format: cell-based, human; details: PDGF(BB) 1 ng/ml, 5 h, 30 min pre-treatment
Method: Costar transwell culture inserts (Corning Inc, USA) with 6.5 mm diameter and […] were coated overnight at 4° C. with 0.1% gelatin (Bovine skin; Sigma, USA) prior to the commencement of the assay (modified Boyden chamber assay). HASM cells were deprived of serum for 24 h prior to the commencement of the assay. Cells were added to the upper side of the transwell inserts with or without 30 min pre-treatment with one of the test compounds. Platelet-derived growth factor(BB) (1 ng/ml) was added to the lower compartment to stimulate cell migration and the chambers and cells left for 5 h. After this period the membranes with the adherent cells were washed with PBS, and fixed for 2 min with DiffQuick (Lab Aids, Aus) fixative and then stained with DiffQuick. Membranes were then washed twice in PBS, peeled off the inserts and placed onto slides. Membranes were visualised by light microscopy, and the number of migrated cells in five fields (×400) were counted in triplicate.
The numbers of HASM appearing on the underside of the porous membrane was counted and the responses were expressed as a percentage of the number of cells migrating in response to PDGF in the absence of pre-treatment.

NIH3T3 cells = assay: Thrombin-induced proliferation of NIH3T3 cells; format: cell-based; details: concentration not given

| Structure (SMILES) | effect on the shape of HASM cells (HASM cells [1]; 10 μM) | effect on proliferation of MCF7 cells, in words (FIG. 3) ([2]; concentration not given) | MCF7 pIC50 ([2]; proliferation in response to 5% FCS, pIC50 of 4.00 = inactive) | airway reactivity to intravenous methacholine (change in respiratory resistance) (FIG. 8) [3] | airway reactivity to intravenous methacholine (change in respiratory resistance) (FIG. 9) [3] | effect on proliferation of BAEC, in words (FIG. 4) ([4]; concentration not given) | migration in response to PDGF (HASM cells [5]) | effect on the shape of HASM cells (HASM cells [1]; 1 μM) | effect on proliferation of MCF7 cells, in words (FIG. 3) ([2]; concentrations below 3 μM) | inhibitory effect on thrombin-induced proliferation (NIH3T3 cells) | effect on proliferation of BAEC, in words (FIG. 4) ([4]; concentrations below 3 μM) |
| --- | --- | --- | --- | --- | --- | --- | --- | --- | --- | --- | --- |
| COc1cc2c(cc1O)CC[C@@H]1[C@@H]2CC[C@]2(C)[C@@H](O)CC[C@@H]12 [2-methoxyestradiol, reference compound] | caused extensive rounding of cells | effective inhibitor | 5.40 | able to reduce the increase in respiratory resistance | able to reduce the increase in respiratory resistance | effective inhibitor | significantly reduced levels of migration | – | – | – | – |
| COc1cc2c(cc1O)C(=NOCc1ccc([N+](=O)[O-])cc1)C[C@@H]1[C@@H]2CC[C@]2(C)[C@@H](O)CC[C@@H]12 [CP-DM-2-11-7, 2-methoxy-6-(4-nitrobenzyloxy)iminoestradiol] | – | – | – | able to reduce the increase in respiratory resistance | able to reduce the increase in respiratory resistance | – | significantly reduced levels of migration | no detectable effects on the shape of the HASM cells | no detectable effect | 26±12% | no detectable effect |
| COc1cc2c(cc1O)C(=NOCc1ccc([N+](=O)[O-])cc1)C[C@@H]1[C@@H]2CC[C@]2(C)C(=NO)CC[C@@H]12 [CP-DM-3-91, 2-methoxy-6-(4-nitrobenzyloxy)iminoestrone-17-oxime] | – | – | – | – | – | – | – | – | – | 68±10% | – |
